The values below come from the pKa sets of Baltruschat and Czodrowski (2020).

Structures are written as SMILES.

The conditions of one data set: acidic group.
Usually pKa stands for the pH at which an ionisable group is half protonated. A high value points to a group that holds its proton tightly. For the compound `O=C(O)c1cc([N+](=O)[O-])ccc1O`, the pKa turned out to be 2.15.

For the compound `O=c1c(O)c1-c1ccccc1`, the pKa was determined as 2.01.

On to `On1nnc2ccc(Br)cc21`, for which the pKa worked out at 3.97.

`N#Cc1cccc(-c2nnn[nH]2)c1` had a pKa of 3.45.

As to `O=C1NC(=O)[C@@H]2CCC[C@H]12`, the pKa was found to be 9.53.

`CC(C)(C)O` displayed a pKa of 17.

With `OC(c1ccccc1)(c1ccncc1)c1ccncc1`, the pKa was 13.1.

`COc1ccc([Se]O)c([N+](=O)[O-])c1`: the pKa is 10.7.

As to `S=CNc1ccc(Cl)cc1`, the pKa worked out at 10.8.

Consider `CC(=O)c1ccccc1NN=C1C(=O)CC(C)(C)CC1=O`, for which the pKa came to 10.5.

On to `CC(C)CC(=O)CC(=O)C(F)(F)F`, for which the pKa was 6.52.

As for `O=C1Cc2c1ccc(O)c2[N+](=O)[O-]`, the pKa turned out to be 3.98.

Consider `O=C(O)c1ccc(Br)s1`, for which the pKa amounted to 3.3.

The compound `Cn1c(CO)nc2ccccc21` yielded a pKa of 15.8.

Turning to `Nc1ccc(S(=O)(=O)Nc2ncccn2)cc1`, the pKa came out at 6.42.

For `O=C(O)c1ccc2ccccc2c1`, the pKa is 4.2.

Compound `CC(C#N)C(=O)O` (stereo not drawn) yielded a pKa of 2.37.

`CC(=O)Nc1cccc(O)c1`: the pKa turned out to be 9.38.

`O=C(C[n+]1cccc2c3ccccc3ccc21)c1ccccc1`: the pKa was found to be 11.3.

On to `CSc1nc(N)c2[nH]cnc2n1`, for which the pKa was 10.2.

Take `N#CC(C#N)=NNc1cccc(O)c1`: the pKa turned out to be 6.45.

Take `O=C(O)CSc1ccccc1`: the pKa is 3.52.

Take `C[Si](C)(CCCCl)CCCC(=O)O`: the pKa turned out to be 4.98.

In turn, `O=C([O-])Cc1nnn[nH]1` showed a pKa of 5.32.

`O=[N+]([O-])c1cccc(O)c1[O-]` yielded a pKa of 11.5.

On to `Oc1ccccc1-c1ccccn1`, for which the pKa is 10.6.

In the case of `CC(=O)N1CCc2noc(O)c2CC1`, the pKa came to 4.3.

For `Cc1c(Cl)c([N+](=O)[O-])cc2c1nnn2O`, the pKa is 3.1.

In turn, `O=[PH](O)C([NH2+]Cc1ccc[nH+]c1)c1ccccc1O` (stereo not drawn) showed a pKa of 2.35.

As for `O=C1CC(Sc2ccc([N+](=O)[O-])cc2)N1` (stereo not drawn), the pKa is 13.

In turn, `CNc1nc(C)nc2[nH]ncc12` showed a pKa of 11.3.

`C[N+](C)(C)[CH2][Sn]([CH3])([CH3])[CH3]`: the pKa came to 10.6.

With `C=CCC1(C2C=CCCC2)C(=O)[N-]C(=S)NC1=O` (stereo not drawn), the pKa was determined as 12.2.

Regarding `C[Si](C)(C)CC(=O)O`, the pKa came out at 5.22.

Compound `O=C(O)c1cccc(S)c1` came in with a pKa of 3.96.

As to `Cc1ccc([N+](C)(C)C)cc1O`, the pKa is 8.2.

The compound `Cc1cccc(OCC(=O)O)c1` returned a pKa of 3.18.

For the compound `O=C1CCC(O)=C1O`, the pKa was 4.8.

Take `[NH3+][C@@H](Cc1ccccc1)C(=O)O`: the pKa is 2.21.

As for `Oc1nc([S-])nc2nc[nH]c12`, the pKa came out at 10.3.

The compound `O=C(O)CC1CCCCO1` (stereo not drawn) had a pKa of 4.39.

In the case of `Nc1ccc(O)cc1[O-]`, the pKa worked out at 11.3.

In the case of `CC1(C(=O)O)CCC=[N+]1[O-]` (stereo not drawn), the pKa stood at 2.95.

On to `FC(F)(F)c1cc(C(F)(F)F)[nH]n1`, for which the pKa is 7.51.

For `Cc1cccc(C(=O)O)c1Cl`, the pKa was 3.

On to `Cc1cc(O)c(C(C)C)cc1Nc1ccc(O)cc1`, for which the pKa is 9.85.

`CC[NH2+]CCCC(=O)O` yielded a pKa of 3.92.

In turn, `Oc1c(Br)cccc1Br` had a pKa of 6.6.

The compound `O=C1CN(C(=O)c2ccccc2)C(=S)N1` gave a pKa of 6.5.

With `CSCC(=O)O`, the pKa is 3.67.

For `C[NH+](C)c1ccccc1C(=O)O`, the pKa is 1.4.

`O=C([O-])c1cccc2ccc(O)cc12` had a pKa of 9.6.

Compound `O=[N+]([O-])/C(=N/O)c1ccc(Cl)cc1` registered a pKa of 6.6.

Regarding `Oc1cccc(Cl)c1Cl`, the pKa amounted to 7.71.

Take `Cc1cc[nH]c1C(=O)O`: the pKa came to 5.1.

As to `CCCCNc1ncnc2[nH]ncc12`, the pKa came out at 11.2.

As for `Oc1cccc[nH+]1`, the pKa was determined as 0.75.

Staying with this data set, now noted: basic group.
The compound `c1ccc(NCC[NH+]2CCCCC2)cc1` yielded a pKa of 2.8.

`COc1ccc(OC)nn1` showed a pKa of 1.61.

The compound `C[NH+](C)CCC/N=C(\c1ccccc1)c1ccccc1O` registered a pKa of 3.31.

`O=C([O-])CC(c1ncc[nH]1)c1ncc[nH]1` yielded a pKa of 6.9.

Take `Cc1[nH]cnc1CSCCNC(=[NH2+])NCCCc1c[nH]c[nH+]1`: the pKa is 6.41.

As to `c1coc(C2CN3CCC2CC3)c1` (stereo not drawn), the pKa came out at 10.

`CCc1ccnnc1C`: the pKa was 4.03.

With `[NH3+]CCc1ccncc1`, the pKa worked out at 4.98.

Turning to `COc1ccc(C(O)CN)cc1` (stereo not drawn), the pKa turned out to be 9.02.

In the case of `COc1ccc(CON)cc1`, the pKa was determined as 4.42.

With `C=CCC(C)(CN(CC)CC)OC(=O)CCC` (stereo not drawn), the pKa was 8.5.

For `CCCCCN(CC(C)O)CC(C)O` (stereo not drawn), the pKa is 9.

`CN(CCO)c1ccccc1`: the pKa came out at 4.89.

Take `Cc1nc(N(C)C)nc(OC(=O)N(C)C)c1C`: the pKa was 4.53.

Take `Cc1ccc(-c2ncc(-c3ccc(Br)cc3)o2)cc1`: the pKa came out at 0.87.

Take `O=C([O-])c1c2cccc1COCCOCc1ncc([nH]1)COCCOC2`: the pKa worked out at 7.05.

As for `CCC(=O)C(CCN1CCOCC1)(c1ccccc1)c1ccccc1`, the pKa came to 6.98.

Turning to `CCN(CCC#N)CCC#N`, the pKa came to 4.55.

On to `CCCCCN`, for which the pKa is 10.7.

Compound `CO[C@H]1CC=C2CCN3CC[C@H](CO)/C(=C\CO)[C@]23C1` yielded a pKa of 8.42.

`CCCc1ccccn1` had a pKa of 5.97.

With `Cn1c(CO)nc2ccccc21`, the pKa was determined as 4.36.

The compound `CCCCCCCNc1ccccc1` came in with a pKa of 5.09.

Regarding `CC1=NCCCC1`, the pKa was found to be 9.57.

For `NC(Cc1c[nH]c2ccccc12)C(=O)[O-]` (stereo not drawn), the pKa was found to be 9.44.

In turn, `NCCCCCCC(=O)[O-]` yielded a pKa of 10.9.

As to `C=Cc1ccncc1`, the pKa was determined as 5.62.

`Nc1ccc(S(=O)(=O)Nc2ncccn2)cc1`: the pKa was found to be 2.

In turn, `OCCCc1ccncc1` gave a pKa of 5.9.

As for `C[Si](C)(C)OC1CN(Cc2ccc(Cl)cc2)C1`, the pKa was found to be 7.72.

Compound `COCc1nc(C)c[nH]1` returned a pKa of 7.03.

As for `OCCCCc1cccnc1`, the pKa amounted to 5.7.

In the case of `CCC(C)NCC(C)C` (stereo not drawn), the pKa is 10.8.

For `O=C(CCCN1CCC(O)(c2ccccc2)CC1)c1ccccc1`, the pKa amounted to 8.4.

`C1CCN(CCC[NH+]2CCCC2)C1` returned a pKa of 8.03.

As to `Cc1cc(C)c2cccc(C)c2n1`, the pKa is 4.48.

On to `Cc1ccc([N+](=O)[O-])c2c(NCCC[NH+](C)C)ccnc12`, for which the pKa turned out to be 6.84.

In the case of `CCCc1c(O)n[nH]c1C`, the pKa was 2.8.

In turn, `CSc1nc(N)c2[nH]cnc2n1` gave a pKa of 3.1.

As to `CCCCCN(CCO)CC(C)O` (stereo not drawn), the pKa came to 8.9.

In turn, `N#CCN` showed a pKa of 5.37.

`N[C@@H]1CCCC[C@@H]1[NH3+]` had a pKa of 6.35.

The compound `Clc1cccnc1` had a pKa of 2.77.

For `CNc1cccnc1`, the pKa came to 6.41.

In turn, `COC(=O)c1cccnc1` returned a pKa of 3.23.

On to `CC[NH+](CC)Cc1cn2nc(-c3ccccc3)cc(C)c2n1`, for which the pKa worked out at 2.2.

As to `CCNCC(=O)Nc1c(C)cccc1C`, the pKa came out at 8.06.

Regarding `Cc1cccc(C2NCCS2)c1` (stereo not drawn), the pKa is 5.26.

Compound `c1ccc2nc3ccccc3nc2c1` yielded a pKa of 1.31.

With `Cc1cccc(Nc2ccccc2)c1`, the pKa was 0.92.

`CN=C(N(C)C)N(C)C`: the pKa is 13.8.

For `Nc1ncnc([O-])c1N`, the pKa turned out to be 9.86.

With `Cn1cnc2c([O-])ncnc21`, the pKa turned out to be 9.11.

As to `C(=C/c1nnnn1-c1ccccc1)/c1ccccc1`, the pKa was -2.81.

`CN(C)c1nc2c(o1)CCCC2`: the pKa turned out to be 6.16.

As for `CCCCCNCc1ccccc1O`, the pKa came out at 8.65.

`Cn1c[nH+]c2cc(N)ccc21` displayed a pKa of 3.09.

With `c1cncc(C2=NCCC2)c1`, the pKa was determined as 8.77.

With `Oc1ccccc1-c1ccccn1`, the pKa came out at 4.2.

The compound `CCOC(=O)CC(c1ccccc1)N(C)C` (stereo not drawn) registered a pKa of 7.66.

Regarding `CN(C)C1CC(C)(C)NC(C)(C)C1`, the pKa was found to be 10.6.

The compound `c1cnccn1` displayed a pKa of 0.57.

`Cc1nc(-c2ccccc2SCc2ccccc2)[nH]c1C` had a pKa of 7.

`CCC(O)CN(CC)CC(C)O` (stereo not drawn) came in with a pKa of 9.2.

In turn, `CC(O)CNCCO` (stereo not drawn) gave a pKa of 8.81.

Turning to `CC(C)(N)CN`, the pKa came out at 10.

`CCC(C)(C)N`: the pKa was 10.9.

`CNc1nc(C)nc2[nH]ncc12` yielded a pKa of 5.56.

In the case of `CN(C)CCN(C)CCN`, the pKa stood at 9.88.

Regarding `CC(=O)C(CN1CCOCC1)c1ccccc1` (stereo not drawn), the pKa came to 6.23.

In turn, `O=C1CC[C@H]2N1CC[C@H]1c3ccccc3CCN12` yielded a pKa of 4.89.

Take `Cc1cc(-c2ncc[nH]2)n[nH]1`: the pKa amounted to 6.16.

On to `N[C@@H]1CCC[C@@H]1O`, for which the pKa came to 9.7.

For the compound `CC1CNCc2ccccc2OCCOc2ccccc2C[NH2+]1` (stereo not drawn), the pKa stood at 6.01.

As for `Cc1ccc(NCC[NH2+]c2ccc(C)cc2)cc1`, the pKa stood at 2.7.

`COc1ccc(N)cc1Br` had a pKa of 4.09.

`N[C@@H]1C[C@@H]2CCCC[C@H]2C[C@@H]1N` came in with a pKa of 9.93.

Regarding `CN(C)O`, the pKa stood at 5.2.

Compound `c1ccc2c(c1)CNCCC[NH2+]Cc1ccccc1OCCO2` came in with a pKa of 7.82.

In turn, `Nc1ccnc2c([O-])cccc12` came in with a pKa of 10.7.

Compound `O=[N+]([O-])c1ccc2[nH]c(-c3ccccc3)nc2c1` came in with a pKa of 2.95.

The compound `NC(Cc1ccccc1)c1nnn[n-]1` (stereo not drawn) showed a pKa of 8.18.

`O=C1CN(C(=O)c2ccccc2)C(=S)N1`: the pKa is -6.6.

`CNc1nc(C)nc2c1cnn2C` registered a pKa of 5.

As to `COC(=N)N`, the pKa is 9.72.

The compound `COC(=O)[C@@H]([NH3+])Cc1c[nH]cn1` yielded a pKa of 5.38.

For `C[Se](C)=O`, the pKa came out at 2.55.

Turning to `CCCCNc1ncnc2[nH]ncc12`, the pKa stood at 4.67.

With `C[NH+](C)CCC/N=C(\c1ccccc1)c1ccccc1-c1ccccc1`, the pKa turned out to be 4.43.

The compound `C[C@@H]1CNC[C@H](C)N1` showed a pKa of 9.86.

Turning to `NC/C=C\C(=O)[O-]`, the pKa turned out to be 9.84.
